Measurements from BindingDB's records for doi:10.7270/Q2B27SRF (Broad Institute, 2010).
Counter-ions that a name gives are not always drawn.

Biological target: Serine/threonine-protein kinase 33 (Homo sapiens, UniProt Q9BYT3)
Experiment: inhibition of STK33 phosphorylation of MBP – biochemical, luminescence, cell-free, retest, dose response (AID 2821)

Chain of Serine/threonine-protein kinase 33 (Q9BYT3 whole entry): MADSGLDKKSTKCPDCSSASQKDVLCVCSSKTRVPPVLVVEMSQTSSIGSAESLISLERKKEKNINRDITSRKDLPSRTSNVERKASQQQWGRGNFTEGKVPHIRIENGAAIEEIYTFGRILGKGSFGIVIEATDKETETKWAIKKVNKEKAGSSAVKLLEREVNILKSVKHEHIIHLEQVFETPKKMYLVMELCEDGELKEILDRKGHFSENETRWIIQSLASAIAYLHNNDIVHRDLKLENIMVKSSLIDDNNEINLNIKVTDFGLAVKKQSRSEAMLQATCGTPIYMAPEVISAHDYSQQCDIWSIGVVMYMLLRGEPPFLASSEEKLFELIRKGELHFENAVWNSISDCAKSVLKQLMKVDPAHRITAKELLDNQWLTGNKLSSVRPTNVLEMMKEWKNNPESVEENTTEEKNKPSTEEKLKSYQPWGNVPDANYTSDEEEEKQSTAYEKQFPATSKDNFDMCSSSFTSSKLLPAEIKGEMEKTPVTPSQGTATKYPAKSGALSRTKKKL

`Cc1cc(N2C(=O)c3ccc(C(=O)Nc4ccc(O)cc4C(=O)O)cc3C2=O)no1` [5-hydroxy-2-[[[2-(5-methyl-3-isoxazolyl)-1,3-dioxo-5-isoindolyl]-oxomethyl]amino]benzoic acid] and `Cc1ccc(NC(=O)c2cccc(C(=O)Nc3ccc(C)cc3C(=O)O)c2)c(C(=O)O)c1` [The compound has not trivial name.] are within 1.5-fold of each other in EC50: 24 µM for the first, 21.8 µM for the second.

Compared with `c1nc(N2CCCC2)c2[nH]cnc2n1` [6-(1-pyrrolidinyl)-7H-purine], `CN1CCN(c2nc(-c3ccccc3O)nc3ccccc23)CC1` [SMR000539302] is 4.4-fold higher in EC50: 9.71 µM for the first, 42.8 µM for the second. The first is the more potent here.

Going from `OCCN1CCN(c2nc(-c3ccccc3O)nc3ccccc23)CC1` [MLS001165184] to `COC(=O)c1ccccc1NC(=O)N1CCN(C/C=C/c2ccccc2)CC1`, the EC50 falls from 23.1 µM to 8.73 µM (2.6-fold). The second is the more potent here.

Going from `N#C/C(=C/C=C/c1ccccc1)C(=O)Nc1ccccc1` [2-cyano-N,5-diphenyl-2,4-pentadienamide] to `O=C(Nc1ccccc1-c1ccccc1)c1ccc(Br)o1` [5-bromo-N-(2-phenylphenyl)furan-2-carboxamide], the EC50 falls from > 120 µM to 10.8 µM. The second is the more potent here.

`CN1CCN(c2ccc(NC(=O)c3ccc(-c4cccc([N+](=O)[O-])c4)o3)cc2)CC1` [N-[4-(4-methylpiperazin-1-yl)phenyl]-5-(3-nitrophenyl)furan-2-carboxamide] and `COc1ccc(NC(=O)c2cc([N+](=O)[O-])ccc2O)cc1` are within 1.5-fold of each other in EC50: 20.2 µM for the first, 18.6 µM for the second.

Compared with `O=C(c1ccc2c3n(nc2c1)-c1ccccc1CO3)N1CCCCC1` [5H-indazolo[2,3-a][3,1]benzoxazin-9-yl(piperidin-1-yl)methanone], `O=c1c2ccccc2oc2ccc(NCCCN3CCOCC3)cc12` is lower in EC50: > 120 µM for the first, 3.82 µM for the second.

Compared with `CN1CCCC1CCNc1ccc2sc3ccccc3c(=O)c2c1` (stereo not given) [2-[2-(1-methyl-2-pyrrolidinyl)ethylamino]-9-thioxanthenone], `CCOc1ccc(Nc2nc(N)c3ccccc3n2)cc1` [N2-(4-ethoxyphenyl)quinazoline-2,4-diamine;hydrochloride] is higher in EC50: 16.6 µM for the first, > 120 µM for the second. The first is the more potent here.

First: COc1cc(C=C2SC(Nc3ccc(Cl)c(C(=O)O)c3)=NC2=O)c(Br)c(Br)c1O [2-Chloro-5-[5-(2,3-dibromo-4-hydroxy-5-methoxy-benzylidene)-4-oxo-thiazolidin-2-ylideneamino]-benzoic acid]
Second: CS(=O)(=O)Nc1ccc(-c2cc(C=C3SC(N)=NC3=O)c[nH]c2=O)cc1 [N-[4-[5-[(Z)-(2-azanyl-4-oxidanylidene-1,3-thiazol-5-ylidene)methyl]-2-oxidanylidene-1H-pyridin-3-yl]phenyl]methanesulfonamide]
The EC50 of the first is 2-fold higher: 15.9 µM for the first, 8.09 µM for the second. The second is the more potent here.

Going from `CCCCCCCCCCCCCCCC[n+]1cccc2ccccc21` [1-cetylquinolin-1-ium;iodide] to `Oc1ccc(/N=C/c2c(O)ccc3ccccc23)cc1` [(1Z)-1-[(4-hydroxyanilino)methylidene]-2-naphthalenone], the EC50 falls from > 120 µM to 2.84 µM.

Compared with `COc1ccc(C(=O)ON=C(N)c2ccccn2)cc1` [SMR000608101], `COc1ccc(C(=O)NNC(=O)c2ccccn2)cc1` is 1.9-fold lower in EC50: 40.4 µM for the first, 21.8 µM for the second.

Compared with `COc1cc(C2c3sc(=O)[nH]c3Sc3c2c(O)n(-c2ccc(C)cc2)c3O)ccc1O` (stereo not given) [SMR000414898], `Cc1cc(C=C2C(=O)c3ccccc3C2=O)c(C)n1-c1ccc(C(=O)O)cc1` [4-[3-[(1,3-dioxo-2-indenylidene)methyl]-2,5-dimethyl-1-pyrrolyl]benzoic acid] is lower in EC50: > 120 µM for the first, 19.3 µM for the second.

First: C/C=C/Cn1c(SCc2ccc(Cl)cc2)nc2c1c(=O)[nH]c(=O)n2C [7-[(E)-but-2-enyl]-8-[(4-chlorophenyl)methylsulfanyl]-3-methylpurine-2,6-dione]
Second: O=C(O)Cn1cc(C=c2sc3nc4ccccc4n3c2=O)c2ccccc21 [SMR000298358]
The EC50 of the first is higher: > 120 µM for the first, 14.2 µM for the second. The second is the more potent here.

`CN1CCc2c(sc3c2c(=O)n(-c2ccccc2)c2n[nH]c(=S)n32)C1` [MLS000558136] and `CN1CCN(C=NC2=NN(c3cccc(C(F)(F)F)c3)CC2)CC1` [MLS000418536] cannot be ordered by EC50: > 120 µM for the first, > 120 µM for the second.

Compared with `CCc1ccc(NC(S)=Nc2ccc3c[nH]nc3c2)cc1` [SMR000261301], `CC(C)N=C(S)Nc1ccc2c[nH]nc2c1` [SMR000261130] is higher in EC50: 9.41 µM for the first, > 120 µM for the second.

First: CC[C@H](CO)Nc1nc(Nc2cccc(Cl)c2)c2ncn(C(C)C)c2n1 [(R)-2-(6-(3-chlorophenylamino)-9-isopropyl-9H-purin-2-ylamino)butan-1-ol]
Second: CCNc1nc(N)nc(-c2cc(Cl)ccc2O)n1 [(6E)-6-[6-amino-4-(ethylamino)-1H-1,3,5-triazin-2-ylidene]-4-chloro-1-cyclohexa-2,4-dienone]
The EC50 of the first is 2-fold lower: 2.49 µM for the first, 5.04 µM for the second.

First: CCN(CC)C(=O)c1ccc(NC(=O)Nc2ccccc2F)cc1 [SMR000376874]
Second: CCN(CC)c1ccc(/C=C2\C(=O)c3ccc(C(=O)O)cc3C2=O)cc1 [2-[1-(4-Diethylamino-phenyl)-meth-(E)-ylidene]-1,3-dioxo-indan-5-carboxylic acid]
The EC50 of the first is higher: > 120 µM for the first, 5.66 µM for the second. The second is the more potent here.

Going from `O=C1Nc2ccccc2C1C=Nc1ccc2c(c1)OCO2` (stereo not given) [(3Z)-3-[(1,3-benzodioxol-5-ylamino)methylidene]-1H-indol-2-one] to `COC1(OC)N=C(N)C2(C#N)C(c3ccc4c(c3)OCO4)C12C#N` (stereo not given), the EC50 rises from 11.3 µM to > 120 µM.

Going from `CN(C)/C=C/C(=O)c1ccc2noc(-c3cccc(F)c3)c2c1` [(E)-3-(dimethylamino)-1-[3-(3-fluorophenyl)-2,1-benzoxazol-5-yl]-2-propen-1-one] to `O=c1ccc2cc3c([nH]c4ccc(Br)cc43)oc-2c1O` [9-bromo-4-hydroxy-6H-[1]benzopyrano[2,3-b]indol-3-one], the EC50 falls from 18.7 µM to 4.01 µM (4.7-fold). The second is the more potent here.

Compared with `Nc1cc(C(=O)O)c(N)c2c1C(=O)c1ccccc1C2=O` [1,4-bis(azanyl)-9,10-bis(oxidanylidene)anthracene-2-carboxylic acid], `Oc1cc(O)cc(/C=C/c2ccc(O)c(O)c2)c1` is 3.6-fold higher in EC50: 3.55 µM for the first, 12.8 µM for the second. The first is the more potent here.

Going from `CN(C)C/C=C/C(=O)Nc1cccc(-c2c[nH]c3ncnc(Oc4ccc(NC(=O)CC(=O)Nc5ccc(F)cc5)cc4F)c23)c1` to `CCOC(=O)Cc1nnc(NC(=O)COc2ccc(C)cc2)s1` [MLS000082525], the EC50 rises from 6.32 µM to > 120 µM.
